Here are results for 55 compounds from ChEMBL document CHEMBL1131047, “Novel nonnucleoside inhibitors of HIV-1 reverse transcriptase. 7. 8-Arylethyldipyridodiazepinones as potent broad-spectrum inhibitors of wild-type and mutant enzymes” (J Med Chem, 1998).

In general, IC50 refers to the concentration needed to halve the response being measured. Lower therefore signals inhibition by little substance.

The target in assay [1] is Human immunodeficiency virus type 1 reverse transcriptase (Human immunodeficiency virus 1, UniProt Q72547, Y181C). Put plainly: Inhibitory activity against HIV-1 Y181C reverse transcriptase.
For assay [2], the target named is Human immunodeficiency virus type 1 reverse transcriptase (Human immunodeficiency virus 1, UniProt Q72547). Put plainly: Inhibitory activity against HIV-1 wild-type reverse transcriptase.
In assay [3] the target is Human immunodeficiency virus type 1 reverse transcriptase (Human immunodeficiency virus 1, UniProt Q72547, Y188L). Description: Inhibitory activity against HIV-1 Y188L reverse transcriptase.
The subject of a further assay is C8166. Description: Inhibitory activity against HIV-1 IIIB replication in C8166 cells. The note with it: Homo sapiens. Format: functional, cell-based.
Assay [4] deals with Human immunodeficiency virus type 1 reverse transcriptase (Human immunodeficiency virus 1, UniProt Q72547, K103N). Put plainly: Inhibitory activity against HIV-1 Mutant Reverse transcriptase K103N.
The target in assay [5] is Human immunodeficiency virus type 1 reverse transcriptase (Human immunodeficiency virus 1, UniProt Q72547, V106A). Description: Inhibitory activity against HIV-1 Mutant Reverse transcriptase V106A.
Assay [6] has as its target Human immunodeficiency virus type 1 reverse transcriptase (Human immunodeficiency virus 1, UniProt Q72547, G190A). Put plainly: Inhibitory activity against HIV-1 Mutant Reverse transcriptase G190A.
In assay [7] the target is Human immunodeficiency virus type 1 reverse transcriptase (Human immunodeficiency virus 1, UniProt Q72547, P236L). Put plainly: Inhibitory activity against HIV-1 Mutant Reverse transcriptase P236L.

As for `CCN1c2ncc(CCc3cccc(N=[N+]=[N-])c3)cc2C(=O)N(C)c2ccc(Cl)nc21`, the 50% inhibitory concentration (IC50) in assay [1] was 160 nM; in assay [2], 80 nM; in assay [3] it was over 1000 nM.
In the case of `CCN1c2ncc(/C=C\c3ccccc3)cc2C(=O)N(C)c2cccnc21`, the 50% inhibitory concentration (IC50) came to 580 nM in assay [1] and 250 nM in assay [2].
Taken in the same sequence, the figures for `CCN1c2ncc(CCCc3ccccc3)cc2C(=O)N(C)c2cccnc21` were 1170 nM and 120 nM.
The compound `CCN1c2ncc(CCc3ccccc3)cc2C(=O)N(C)c2ccc(Cl)nc21` had a concentration for half-maximal inhibition (IC50) in the assay with C8166 of 12 nM. That is a double-digit nanomolar value.
Take `CCN1c2ncc(CCc3cccc(F)c3)cc2C(=O)N(C)c2cccnc21`: the 50% inhibitory concentration (IC50) in assay [1] was 370 nM; in assay [2], 120 nM; in assay [3], over 1000 nM.
Taken in the same sequence, the figures for `CCN1c2ncc(CCc3ccccn3)cc2C(=O)N(C)c2cccnc21` were over 1000 nM, 190 nM and over 1000 nM.
Taken in the same sequence, the figures for `CCN1c2ncc(CCc3cccc(C)c3)cc2C(=O)N(C)c2ccc(Cl)nc21` were 460 nM, 110 nM and over 1000 nM.
Regarding `CCN1c2ncc(CCc3cccnc3)cc2C(=O)N(C)c2cccnc21`, the 50% inhibitory concentration (IC50) was 320 nM in assay [1], 130 nM in assay [2] and over 1000 nM in assay [3].
As for `CCN1c2ncc(CCc3ccnc(C)c3)cc2C(=O)N(C)c2cccnc21`, the IC50 in assay [1] was 90 nM; in assay [2] it was 30 nM; in assay [3], over 1000 nM.
Regarding `CCN1c2ncc(CCc3ccncc3)cc2C(=O)N(C)c2cccnc21`, the half-inhibitory concentration (IC50) was 25 nM in the assay on C8166, 110 nM in assay [1], 30 nM in assay [2] and over 1000 nM in assay [3].
As for `CCN1c2ncc(CCc3cccc(C)c3)cc2C(=O)N(C)c2cccnc21`, the IC50 in assay [1] is 280 nM; in assay [2], 110 nM; in assay [3] it was over 1000 nM.
For the compound `CCN1c2ncc(C)cc2C(=O)N(C)c2cccnc21`, the half-maximal inhibitory concentration (IC50) is over 1000 nM in assay [1] and 750 nM in assay [2].
Taken in the same sequence, the figures for `CCN1c2ncc(CCC(N)=O)cc2C(=O)N(C)c2cccnc21` were 6100 nM and 620 nM.
For the compound `CCN1c2ncc(CCc3ccnc(C(=O)O)c3)cc2C(=O)N(C)c2ccc(Cl)nc21`, the IC50 in assay [1] was 3800 nM; in assay [2], 1500 nM; in assay [3], over 1000 nM.
As for `CCN1c2ncc(CCc3ccncc3)cc2C(=O)N(C)c2ccc(I)nc21`, the results for the concentration for half-maximal inhibition (IC50) in assay [1], in assay [2] and in assay [3] were 180 nM, 90 nM and 430 nM, respectively.
`CCN1c2ncc(CCO)cc2C(=O)N(C)c2cccnc21`: the values for the 50% inhibitory concentration (IC50) in assay [1] and in assay [2] were 2500 nM and 430 nM, respectively.
With `CCN1c2ncc(CCc3ccccc3C)cc2C(=O)N(C)c2cccnc21`, the IC50 in assay [1] was 1600 nM; in assay [2], 200 nM; in assay [3], over 1000 nM.
Taken in the same sequence, the figures for `CCN1c2ncc(CCc3ccc(C)cc3)cc2C(=O)N(C)c2cccnc21` were 250 nM, 100 nM and over 1000 nM.
On to `CCN1c2ncc(CCc3ccccc3N)cc2C(=O)N(C)c2cccnc21`, for which the IC50 in assay [1] was 1700 nM; in assay [2] it was 80 nM; in assay [3], over 1000 nM.
Turning to `CCN1c2ncc(CCc3ccccc3)cc2C(=O)N(C)c2cccnc21`, the half-inhibitory concentration (IC50) in assay [1] stood at 130 nM; in assay [2], 50 nM.
Turning to `CCN1c2ncc(CCc3cccc(NC(N)=O)c3)cc2C(=O)N(C)c2ccc(Cl)nc21`, the IC50 worked out at 39 nM in the assay on C8166, 80 nM in assay [1], 60 nM in assay [2] and 230 nM in assay [3].
`CCN1c2ncc(NC(N)=O)cc2C(=O)N(C)c2cccnc21` returned an IC50 in assay [2] of 1100 nM.
In the case of `CCN1c2ncc(CCC#N)cc2C(=O)N(C)c2cccnc21`, the IC50 is 2160 nM in assay [1] and 210 nM in assay [2].
For `CCN1c2ncc(CCc3cccc(N)c3)cc2C(=O)N(C)c2cccnc21`, the IC50 is 70 nM in assay [1], 40 nM in assay [2] and over 1000 nM in assay [3].
Take `CCN1c2ncc(Cl)cc2C(=O)N(C)c2cccnc21`: the values for the IC50 in assay [1] and in assay [2] were over 1000 nM and 540 nM, respectively.
Take `CCN1c2ncc(CCc3cncnc3)cc2C(=O)N(C)c2cccnc21`: the IC50 was over 1000 nM in assay [1], 540 nM in assay [2] and over 1000 nM in assay [3].
As to `CCN1c2ncc(CCc3ccnc(C)c3)cc2C(=O)N(C)c2ccc(Cl)nc21`, the concentration for half-maximal inhibition (IC50) is 140 nM in assay [1], 60 nM in assay [2] and over 1000 nM in assay [3].
Take `CCN1c2ncc(CCc3ccncc3)cc2C(=O)N(C)c2ccc(F)nc21`: the IC50 in assay [4] turned out to be 20 nM; in assay [5], 250 nM; in assay [1], 80 nM; in assay [2], 50 nM; in assay [3], 250 nM; in assay [6] it was 60 nM. The compound further displayed a half-inhibitory concentration (IC50) in assay [7] of 50 nM.
As to `CCN1c2ncc(/C=C/c3ccncc3)cc2C(=O)N(C)c2cccnc21`, the IC50 was over 1000 nM in assay [1] and 3000 nM in assay [2].
Consider `CCN1c2ncccc2C(=O)N(C)c2cccnc21`, for which the IC50 in assay [2] worked out at 90 nM.
Regarding `CCN1c2ncc(CCc3ccc(N)cc3)cc2C(=O)N(C)c2ccc(Cl)nc21`, the concentration for half-maximal inhibition (IC50) in assay [1] was 360 nM; in assay [2], 160 nM; in assay [3] it was over 1000 nM.
Taken in the same sequence, the figures for `CCN1c2ncc(CCc3cccc(NS(C)(=O)=O)c3)cc2C(=O)N(C)c2ccc(Cl)nc21` were 140 nM, 140 nM and over 1000 nM.
Taken in the same sequence, the figures for `CCN1c2ncc(CCc3ccnc(C(N)=O)c3)cc2C(=O)N(C)c2ccc(Cl)nc21` were 250 nM, 50 nM and 4000 nM.
Take `CCN1c2ncc(CCCO)cc2C(=O)N(C)c2cccnc21`: the IC50 in assay [1] stood at 2900 nM; in assay [2] it was 300 nM.
As to `CCN1c2ncc(CCc3ccc(NS(C)(=O)=O)cc3)cc2C(=O)N(C)c2ccc(Cl)nc21`, the half-maximal inhibitory concentration (IC50) in assay [1] was 560 nM; in assay [2], 330 nM; in assay [3] it was over 1000 nM.
On to `CCN1c2ncc(/C=C/C(=O)OC)cc2C(=O)N(C)c2cccnc21`, for which the half-inhibitory concentration (IC50) in assay [2] was over 1000 nM.
Turning to `CCN1c2ncc(CCc3ccnc(CO)c3)cc2C(=O)N(C)c2ccc(Cl)nc21`, the values for the IC50 in assay [1], in assay [2] and in assay [3] were 280 nM, 160 nM and over 1000 nM, respectively.
In assay [2], `CCN1c2ncc(C(=O)O)cc2C(=O)N(C)c2cccnc21` returned an IC50 of over 1000 nM.
As for `CCN1c2ncc(CCc3nccs3)cc2C(=O)N(C)c2cccnc21`, the concentration for half-maximal inhibition (IC50) in assay [1] is 440 nM; in assay [2] it was 40 nM; in assay [3], over 1000 nM.
For the compound `CCN1c2ncc(CO)cc2C(=O)N(C)c2cccnc21`, the 50% inhibitory concentration (IC50) in assay [1] is 740 nM; in assay [2] it was 50 nM.
Taken in the same sequence, the figures for `CCN1c2ncc(Cc3ccccc3)cc2C(=O)N(C)c2cccnc21` were 1200 nM and 120 nM.
As to `CCN1c2ncc(CCc3ccnc(C(=O)OC)c3)cc2C(=O)N(C)c2ccc(Cl)nc21`, the figures for the IC50 in assay [1], in assay [2] and in assay [3] were 480 nM, 150 nM and 6000 nM, respectively.
Taken in the same sequence, the figures for `CCN1c2ncc(CCc3ccc4ccccc4c3)cc2C(=O)N(C)c2ccc(Cl)nc21` were 2880 nM, 1020 nM and over 1000 nM.
For `CCN1c2ncc(CCc3ccccc3C)cc2C(=O)N(C)c2ccc(Cl)nc21`, the 50% inhibitory concentration (IC50) in assay [1], in assay [2] and in assay [3] was over 1000 nM throughout.
Consider `CCN1c2ncc(CCC(=O)OC)cc2C(=O)N(C)c2cccnc21`, for which the values for the IC50 in assay [1] and in assay [2] were 140 nM and 90 nM, respectively.
In assay [2], `CCN1c2ncc(N)cc2C(=O)N(C)c2cccnc21` had an IC50 of 100 nM.
As for `CCN1c2ncc(CCc3ccc4ccccc4c3)cc2C(=O)N(C)c2ccc(F)nc21`, the IC50 in assay [1] was 30 nM; in assay [2], 20 nM; in assay [3] it was over 1000 nM.
Taken in the same sequence, the figures for `CCN1c2ncc(CCc3ccncc3)cc2C(=O)N(C)c2ccc(C#N)nc21` were 290 nM, 460 nM and over 1000 nM.
Regarding `CCN1c2ncc(-c3cccc(OC)c3)cc2C(=O)N(C)c2cccnc21`, the 50% inhibitory concentration (IC50) in assay [1] and in assay [2] was over 1000 nM in each case.
Consider `CCN1c2ncc(CCc3cccc(N)c3)cc2C(=O)N(C)c2ccc(Cl)nc21`, for which the 50% inhibitory concentration (IC50) turned out to be 10 nM in assay [4]; 90 nM in assay [5]; 230 nM in assay [1]; 120 nM in assay [2]; 250 nM in assay [3]; 10 nM in assay [6]. The same compound came in with an IC50 in assay [7] of 40 nM.
Consider `CCN1c2ncc(CCc3ccccc3)cc2C(=O)N(C)c2ccc(C3=CCC=N3)nc21`, for which the IC50 in assay [1] was 520 nM; in assay [2], 590 nM; in assay [3], 1280 nM.
For `CCN1c2ncc(CCc3ccc4ccccc4c3)cc2C(=O)N(C)c2cccnc21`, the half-maximal inhibitory concentration (IC50) in assay [1] is 150 nM; in assay [2], 80 nM; in assay [3] it was over 1000 nM.
Taken in the same sequence, the figures for `CCN1c2ncc(CCc3ccc(C)cc3)cc2C(=O)N(C)c2ccc(Cl)nc21` were 1180 nM, 230 nM and over 1000 nM.
For `CCN1c2ncc(CCc3ccncc3)cc2C(=O)N(C)c2ccc(Cl)nc21`, the half-inhibitory concentration (IC50) with C8166 stood at 9 nM.
With `CCN1c2ncc(CCc3ccc(N)cc3)cc2C(=O)N(C)c2cccnc21`, the results for the concentration for half-maximal inhibition (IC50) in assay [1], in assay [2] and in assay [3] were 200 nM, 60 nM and over 1000 nM, respectively.
